We go through 17 compounds from ChEMBL document CHEMBL1146941, “Synthesis of pyrazinamide Mannich bases and its antitubercular properties” (2006).

≈ marks a conversion by molar mass, not a printed value. A value given as a limit tells only on which side of the number the result lay.

The subject of this experiment is Mycobacterium tuberculosis. The experiment is described as follows: Antimycobacterial activity against multi drug resistant Mycobacterium tuberculosis. It is filed as functional.
With `COc1ccccc1N1CCN(CNC(=O)c2cnccn2)CC1`, the MIC90 (usually the lowest concentration that inhibits either 90% of growth or 90% of the strains tested, depending on the study) is more than 25 µg/mL. To `O=C(NCN1CCN(c2ncccn2)CC1)c1cnccn1` belongs more than 25 µg/mL; to `O=C(NCN1CCN(c2ccccn2)CC1)c1cnccn1`, more than 25 µg/mL; to `CCn1cc(C(=O)O)c(=O)c2cc(F)c(N3CCN(CNC(=O)c4cnccn4)CC3)cc21`, 0.78 µg/mL (≈ 1.72 µM). Compound `O=C(NCN1CCN(c2cc3c(cc2F)c(=O)c(C(=O)O)cn3C2CC2)CC1)c1cnccn1` showed an MIC90 of 0.78 µg/mL (≈ 1.67 µM). Take `CN1CCN(CNC(=O)c2cnccn2)CC1`: the MIC90 is more than 25 µg/mL. In turn, `O=C(NCN1CCN(c2ccccc2)CC1)c1cnccn1` came in with an MIC90 of more than 25 µg/mL.

`COc1ccc(N2CCN(CNC(=O)c3cnccn3)CC2)cc1` registered an MIC90 of more than 25 µg/mL. To `NC(=O)c1cnccn1` [PYRAZINAMIDE] belongs more than 25 µg/mL.

On to `COc1cccc(N2CCN(CNC(=O)c3cnccn3)CC2)c1`, for which the MIC90 was more than 25 µg/mL. `O=C(NCN1CCN(c2ccc(F)cc2)CC1)c1cnccn1` gave an MIC90 of 1.76 µg/mL (≈ 5.58 µM). Then `O=C(NCN1CCN(c2ccc(C(F)(F)F)cc2)CC1)c1cnccn1`, with 1.76 µg/mL (≈ 4.82 µM); and `O=C(NCN1CCN(c2ccc([N+](=O)[O-])cc2)CC1)c1cnccn1`, with 6.25 µg/mL (≈ 18.3 µM); and `O=C(NCN1CCN(c2cccc(Cl)c2)CC1)c1cnccn1`, with 6.25 µg/mL (≈ 18.8 µM). Compound `CCn1cc(C(=O)O)c(=O)c2cc(F)c(N3CCN(CNC(=O)c4cnccn4)CC3)c(F)c21` had an MIC90 of 0.78 µg/mL (≈ 1.65 µM).

In turn, `O=C(NCN1CCN(c2ccc(Cl)cc2)CC1)c1cnccn1` showed an MIC90 of 12.5 µg/mL (≈ 37.7 µM). To `O=C(NCN1CCN(Cc2ccccc2)CC1)c1cnccn1` belongs more than 25 µg/mL.
